The values that follow come from US9139609B2, “C-4″ position substituted macrolide derivative” (priority 2011, dated 2015).

What all share (type): cell-based
Experiment [1] relates to Haemophilus infuenzae ATCC43095. Description: In vitro antibacterial activity, microbroth dilution method (CLSI method), test bacterium A. To be noted: read-out: MIC (minimum inhibitory concentration), test bacterium A. The procedure: (§1) In vitro antibacterial activities of the compounds of the present invention against various test bacteria were measured according to the microbroth dilution method (CLSI method). Among them, the bacteria C, D and E are erythromycin resistant bacteria. The MIC values (minimum inhibitory concentration, μg/ml) for the test bacteria A and B are exemplified in Table 22.
For orientation: Dilution methods test growth across graded concentrations, often in twofold steps.

Experiment [2] deals with Streptococcus pneumoniae ATCC49619. Description: In vitro antibacterial activity, microbroth dilution method (CLSI method), test bacterium B. Particulars: read-out: MIC (minimum inhibitory concentration), test bacterium B. On the procedure: as §1
Experiment [3] relates to Streptococcus pneumoniae ATCC700904. The experiment can be described thus: In vitro antibacterial activity, microbroth dilution method (CLSI method), test bacterium C (erythromycin resistant). Particulars: read-out: MIC (minimum inhibitory concentration), test bacterium C. The procedure: as §1
The subject of experiment [4] is Streptococcus pyogenes M808. The experiment can be described thus: In vitro antibacterial activity, microbroth dilution method (CLSI method), test bacterium D (erythromycin resistant). To be noted: read-out: MIC (minimum inhibitory concentration), test bacterium D. On the procedure: as §1

Converted amounts (≈) assume the structure as drawn.

Turning to `CC[C@H]1OC(=O)[C@H](C)[C@@H](O[C@H]2C[C@@](C)(OC)[C@@](O)(CN(C)CCN(CC)CC)[C@H](C)O2)[C@H](C)[C@@H](O[C@@H]2O[C@H](C)C[C@H](N(C)C)[C@H]2O)[C@@](C)(OC)C[C@@H](C)C(=O)[C@H](C)[C@H]2N(CC3CCS(=O)(=O)C3)C(=O)O[C@]12C` (stereo partly drawn) [Example154], the MIC in experiment [1] was found to be 4 µg/mL (≈ 3.82 µM); in experiment [2], 0.06 µg/mL (≈ 0.0573 µM).

As to `CC[C@H]1OC(=O)[C@H](C)[C@@H](O[C@H]2C[C@@](C)(OC)[C@@](O)(CN(C)CCN(CC)CC)[C@H](C)O2)[C@H](C)[C@@H](O[C@@H]2O[C@H](C)C[C@H](N(C)C)[C@H]2O)[C@@](C)(OC)C[C@@H](C)C(=O)[C@H](C)[C@H]2N(O)C(=O)O[C@]12C` [Example170], the MIC came out at 4 µg/mL (≈ 4.3 µM) in experiment [1] and 0.03 µg/mL (≈ 0.0322 µM) in experiment [2].

In the case of `CC[C@H]1OC(=O)[C@H](C)[C@@H](O[C@H]2C[C@@](C)(OC)[C@@](O)(CN(C)CCN(C)C)[C@H](C)O2)[C@H](C)[C@@H](O[C@@H]2O[C@H](C)C[C@H](N(C)C)[C@H]2O)[C@@](C)(OC)C[C@@H](C)C(=O)[C@H](C)[C@H]2N(C)C(=O)O[C@]12C` [Example183], the MIC in experiment [1] was 8 µg/mL (≈ 8.88 µM); in experiment [2], 0.016 µg/mL (≈ 0.0178 µM).

As to `CC[C@H]1OC(=O)[C@H](C)[C@@H](O[C@H]2C[C@@](C)(OC)[C@@](O)(CN(C)CCN(CC)C(C)=O)[C@H](C)O2)[C@H](C)[C@@H](O[C@@H]2O[C@H](C)C[C@H](N(C)C)[C@H]2O)[C@@](C)(OC)C[C@@H](C)C(=O)[C@H](C)[C@H]2NC(=O)O[C@@]21C` [Example263], the MIC was found to be 8 µg/mL (≈ 8.61 µM) in experiment [1] and 0.06 µg/mL (≈ 0.0646 µM) in experiment [2].

For the compound `CC[C@H]1OC(=O)[C@H](C)[C@@H](O[C@H]2C[C@@](C)(OC)[C@@](O)(CN(C)CCN(CC)C(=O)OC)[C@H](C)O2)[C@H](C)[C@@H](O[C@@H]2O[C@H](C)C[C@H](N(C)C)[C@H]2O)[C@@](C)(OC)C[C@@H](C)C(=O)[C@H](C)[C@H]2NC(=O)O[C@@]21C` [Example264], the figures for the MIC in experiment [1] and in experiment [2] were 8 µg/mL (≈ 8.46 µM) and 0.06 µg/mL (≈ 0.0635 µM), respectively.

Consider `CC[C@H]1OC(=O)[C@H](C)[C@@H](O[C@H]2C[C@@](C)(OC)[C@@](O)(CN(C)CCN(CC)CC)[C@H](C)O2)[C@H](C)[C@@H](O[C@@H]2O[C@H](C)C[C@H](N(C)C)[C@H]2O)[C@@](C)(OC)C[C@@H](C)C(=O)[C@H](C)[C@H]2NC(=O)O[C@@]21C` [Example299], for which the MIC in experiment [1] turned out to be 4 µg/mL (≈ 4.37 µM); in experiment [2] it was 0.03 µg/mL (≈ 0.0328 µM).

Turning to `CC[C@H]1OC(=O)[C@H](C)[C@@H](O[C@H]2C[C@@](C)(OC)[C@@](O)(CN(C)C(=O)CN(CC)CC)[C@H](C)O2)[C@H](C)[C@@H](O[C@@H]2O[C@H](C)C[C@H](N(C)C)[C@H]2O)[C@@](C)(OC)C[C@@H](C)C(=O)[C@H](C)[C@H]2NC(=O)O[C@@]21C` [Example329], the MIC in experiment [1] turned out to be 8 µg/mL (≈ 8.61 µM); in experiment [2], 0.03 µg/mL (≈ 0.0323 µM).

Take `CC[C@H]1OC(=O)[C@H](C)[C@@H](O[C@H]2C[C@@](C)(OC)[C@@](O)(CN(C)CCN(C)C(C)(C)c3ccccc3OC)[C@H](C)O2)[C@H](C)[C@@H](O[C@@H]2O[C@H](C)C[C@H](N(C)C)[C@H]2O)[C@]2(C)C[C@@H](C)C(O2)[C@H](C)[C@H]2NC(=O)O[C@@]21C` [Example332]: the MIC in experiment [1] came to 4 µg/mL (≈ 4.04 µM); in experiment [2] it was 0.06 µg/mL (≈ 0.0605 µM).

For `CC[C@H]1OC(=O)[C@H](C)[C@@H](O[C@H]2C[C@@](C)(OC)[C@@](O)(CN(C)CCN(C)C(C)(C)c3ccccc3OC)[C@H](C)O2)[C@H](C)[C@@H](O[C@@H]2O[C@H](C)C[C@H](N(C)C)[C@H]2O)[C@@](C)(OC)C[C@@H](C)C2=NCCN3C(=O)O[C@@]1(C)[C@H]3[C@H]2C` [Example338], the values for the MIC in experiment [1] and in experiment [2] were 8 µg/mL (≈ 7.65 µM) and 0.06 µg/mL (≈ 0.0573 µM), respectively.

With `CC[C@H]1OC(=O)[C@H](C)[C@@H](O[C@H]2C[C@@](C)(OC)[C@@](O)(CN(C)CCN(CC)CC)[C@H](C)O2)[C@H](C)[C@@H](O[C@@H]2O[C@H](C)C[C@H](N(C)C)[C@H]2O)[C@@](C)(OC)C[C@@H](C)C(=O)[C@H](C)[C@H]2N(CC3CCS(=O)(=O)C3)C(=O)O[C@]12C` (stereo partly drawn) [Example 154], the MIC in experiment [3] lay in the range of 0.12 to 0.25 µg/mL (≈ 0.115 to 0.239 µM); in experiment [4], 4 to 8 µg/mL (≈ 3.82 to 7.64 µM).

In the case of `CC[C@H]1OC(=O)[C@H](C)[C@@H](O[C@H]2C[C@@](C)(OC)[C@@](O)(CN(C)CCN(CC)CC)[C@H](C)O2)[C@H](C)[C@@H](O[C@@H]2O[C@H](C)C[C@H](N(C)C)[C@H]2O)[C@@](C)(OC)C[C@@H](C)C(=O)[C@H](C)[C@H]2N(O)C(=O)O[C@]12C` [Example 170], the MIC lay within 0.12 to 0.25 µg/mL (≈ 0.129 to 0.268 µM) in experiment [3] and 4 to 8 µg/mL (≈ 4.3 to 8.59 µM) in experiment [4].

On to `CC[C@H]1OC(=O)[C@H](C)[C@@H](O[C@H]2C[C@@](C)(OC)[C@@](O)(CN(C)CCN(C)C)[C@H](C)O2)[C@H](C)[C@@H](O[C@@H]2O[C@H](C)C[C@H](N(C)C)[C@H]2O)[C@@](C)(OC)C[C@@H](C)C(=O)[C@H](C)[C@H]2N(C)C(=O)O[C@]12C` [Example 183], for which the MIC in experiment [3] is 0.5 to 2 µg/mL (≈ 0.555 to 2.22 µM); in experiment [4], at least 16 µg/mL.
